Converted amounts (≈) assume the structure as drawn.
Key:
[1] = tested on: Puccinia recondita tritici = Puccinia triticina; assay: Fungicidal activity vs. leaf rust on wheat plants; type: in vivo; details: 50 ppm spray on wheat (Yuma), inoculated the following day, evaluated 7-9 days later; read-out: Puccinia Rating (% Disease Control @ 50 ppm)
Outline: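 Wheat seedlings were sprayed to wetness with compound at 50 ppm in 10% acetone/Triton X100 water, at about 1500 L/ha. They were inoculated with P. recondita tritici spores the following day and held overnight at high humidity before greenhouse growth. Disease severity was rated 7-9 days later on a rating scale.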

[2] = tested on: Septoria tritici (ATCC 26517); assay: Minimum Inhibitory Concentration (MIC) vs. Septoria tritici; type: cell-based; details: Zymoseptoria tritici, ATCC26517, 168 h; 50% reduction in growth of S. tritici; 22° C., seven days; read-out: Septoria Rating (MIC)
Outline: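 Growth inhibition of S. tritici by CLSI-based filamentous-fungus microdilution, 2-fold series 16 to 0.016 μg/mL in RPMI-1640/MOPS with 2% DMSO. Inoculum approximately 5×10^4 cfu/mL; plates incubated 22° C, seven days, dark, unshaken.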

| SMILES | pest or weed control at 50 ppm [1] [%] | MIC [2] [µg/mL] |
| --- | --- | --- |
| COc1ccc(Oc2ccc(C(F)(F)C(O)(Cn3cnnn3)c3ccc(F)cc3F)nc2)cc1 (stereo not drawn) [Compound 87, 2-(2,4-Difluorophenyl)-1,1-difluoro-1-(5-(4-methoxyphenoxy)pyridin-2-yl)-3-(1H-tetrazol-1-yl)propan-2-ol] | 80 to 100 | > 4 |
| OC(Cn1cnnn1)(c1ccc(F)cc1F)C(F)(F)c1ccc(Oc2ccccc2F)cn1 (stereo not drawn) [Compound 88, 2-(2,4-Difluorophenyl)-1,1-difluoro-1-(5-(2-fluorophenoxy)pyridin-2-yl)-3-(1H-tetrazol-1-yl)propan-2-ol] | 80 to 100 | ≤ 0.5 |
| N#Cc1ccc(Oc2ccc(C(F)(F)C(O)(Cn3cnnn3)c3ccc(F)cc3F)nc2)c(F)c1 (stereo not drawn) [Compound 89, 4-((6-(2-(2,4-Difluorophenyl)-1,1-difluoro-2-hydroxy-3-(1H-tetrazol-1-yl)propyl)pyridin-3-yl)oxy)-3-fluorobenzonitrile] | 80 to 100 | ≤ 0.5 |
| OC(Cn1cnnn1)(c1ccc(F)cc1F)C(F)(F)c1ccc(Oc2ncc(C(F)(F)F)cc2Cl)cn1 (stereo not drawn) [Compound 92, 1-(5-((3-chloro-5-(trifluoromethyl)pyridin-2-yl)oxy)pyridin-2-yl)-2-(2,4-difluorophenyl)-1,1-difluoro-3-(1H-tetrazol-1-yl)propan-2-ol] | 80 to 100 | ≤ 0.5 |
| N#Cc1ccc(Oc2ccc(C(F)(F)C(O)(Cn3cnnn3)c3ccc(F)cc3F)nc2)nc1 (stereo not drawn) [Compound 93, 6-((6-(2-(2,4-difluorophenyl)-1,1-difluoro-2-hydroxy-3-(1H-tetrazol-1-yl)propyl)pyridin-3-yl)oxy)nicotinonitrile] | 80 to 100 | ≤ 0.5 |
| OC(Cn1cnnn1)(c1ccc(F)cc1F)C(F)(F)c1ccc(Oc2ccc(C(F)(F)F)cn2)cn1 (stereo not drawn) [Compound 94, 2-(2,4-difluorophenyl)-1,1-difluoro-3-(1H-tetrazol-1-yl)-1-(5-((5-(trifluoromethyl)pyridin-2-yl)oxy)pyridin-2-yl)propan-2-ol] | 80 to 100 | ≤ 0.5 |
| OC(Cn1cnnn1)(c1ccc(F)cc1F)C(F)(F)c1ccc(Oc2ccc(Cl)cn2)cn1 (stereo not drawn) [Compound 95, 1-(5-((5-chloropyridin-2-yl)oxy)pyridin-2-yl)-2-(2,4-difluorophenyl)-1,1-difluoro-3-(1H-tetrazol-1-yl)propan-2-ol] | 80 to 100 | ≤ 0.5 |
| N#Cc1cc(Oc2ccc(C(F)(F)C(O)(Cn3cnnn3)c3ccc(F)cc3F)nc2)ccn1 (stereo not drawn) [Compound 96, 4-((6-(2-(2,4-difluorophenyl)-1,1-difluoro-2-hydroxy-3-(1H-tetrazol-1-yl)propyl)pyridin-3-yl)oxy)picolinonitrile] | 60 to 79 | 1.5 to 4 (≈ 3.18 to 8.49 µM) |
| OC(Cn1cnnn1)(c1ccc(F)cc1F)C(F)(F)c1ccc(Oc2ncccn2)cn1 (stereo not drawn) [Compound 97, 2-(2,4-difluorophenyl)-1,1-difluoro-1-(5-(pyrimidin-2-yloxy)pyridin-2-yl)-3-(1H-tetrazol-1-yl)propan-2-ol] | 80 to 100 | 0.5 to 1.5 (≈ 1.12 to 3.35 µM) |
| OC(Cn1cnnn1)(c1ccc(F)cc1F)C(F)(F)c1ccc(Oc2ncc(Cl)cn2)cn1 (stereo not drawn) [Compound 98, 1-(5-((5-chloropyrimidin-2-yl)oxy)pyridin-2-yl)-2-(2,4-difluorophenyl)-1,1-difluoro-3-(1H-tetrazol-1-yl)propan-2-ol] | 80 to 100 | ≤ 0.5 |
| OC(Cn1cnnn1)(c1ccc(F)cc1F)C(F)(F)c1ccc(Oc2ncc(Br)cn2)cn1 (stereo not drawn) [Compound 99, 1-(5-((5-bromopyrimidin-2-yl)oxy)pyridin-2-yl)-2-(2,4-difluorophenyl)-1,1-difluoro-3-(1H-tetrazol-1-yl)propan-2-ol] | 80 to 100 | ≤ 0.5 |
| N#Cc1ncc(Oc2ccc(C(F)(F)C(O)(Cn3cnnn3)c3ccc(F)cc3F)nc2)cn1 (stereo not drawn) [Compound 100, 5-((6-(2-(2,4-difluorophenyl)-1,1-difluoro-2-hydroxy-3-(1H-tetrazol-1-yl)propyl)pyridin-3-yl)oxy)pyrimidine-2-carbonitrile] | 60 to 79 | 0.5 to 1.5 (≈ 1.06 to 3.18 µM) |
| O=Cc1ccc(Oc2ccc(C(F)(F)C(O)(Cn3cnnn3)c3ccc(F)cc3F)nc2)nc1 (stereo not drawn) [Compound 101, 6-((6-(2-(2,4-difluorophenyl)-1,1-difluoro-2-hydroxy-3-(1H-tetrazol-1-yl)propyl)pyridin-3-yl)oxy)nicotinaldehyde] | < 40 | > 4 |
| CO/N=C/c1ccc(Oc2ccc(C(F)(F)C(O)(Cn3cnnn3)c3ccc(F)cc3F)nc2)nc1 (stereo not drawn) [Compound 102, (E)-6-((6-(2-(2,4-difluorophenyl)-1,1-difluoro-2-hydroxy-3-(1H-tetrazol-1-yl)propyl)pyridin-3-yl)oxy)nicotinaldehyde O-methyl oxime] | 80 to 100 | ≤ 0.5 |
| OC(Cn1cnnn1)(c1ccc(F)cc1F)C(F)(F)c1ccc(Oc2ccc(/C=N/OCc3ccccc3)cn2)cn1 (stereo not drawn) [Compound 103, (E)-6-((6-(2-(2,4-difluorophenyl)-1,1-difluoro-2-hydroxy-3-(1H-tetrazol-1-yl)propyl)pyridin-3-yl)oxy)nicotinaldehyde O-benzyl oxime] | 60 to 79 | 0.5 to 1.5 (≈ 0.863 to 2.59 µM) |
| OC(Cn1cnnn1)(c1ccc(F)cc1F)C(F)(F)c1ccc(Oc2ncc(C(F)(F)F)cc2F)cn1 (stereo not drawn) [Compound 104, 2-(2,4-difluorophenyl)-1,1-difluoro-1-(5-((3-fluoro-5-(trifluoromethyl)pyridin-2-yl)oxy)pyridin-2-yl)-3-(1H-tetrazol-1-yl)propan-2-ol] | 80 to 100 | ≤ 0.5 |
| OC(Cn1cnnn1)(c1ccc(F)cc1F)C(F)(F)c1ccc(Oc2ncc(C(F)(F)F)cn2)cn1 (stereo not drawn) [Compound 105, 2-(2,4-difluorophenyl)-1,1-difluoro-3-(1H-tetrazol-1-yl)-1-(5-((5-(trifluoromethyl)pyrimidin-2-yl)oxy)pyridin-2-yl)propan-2-ol] | 80 to 100 | ≤ 0.5 |
| OC(Cn1cnnn1)(c1ccc(F)cc1F)C(F)(F)c1ccc(Oc2ccc(Br)cn2)cn1 (stereo not drawn) [Compound 106, 1-(5-((5-bromopyridin-2-yl)oxy)pyridin-2-yl)-2-(2,4-difluorophenyl)-1,1-difluoro-3-(1H-tetrazol-1-yl)propan-2-ol] | 80 to 100 | ≤ 0.5 |
| N#Cc1cnc(Oc2ccc(C(F)(F)C(O)(Cn3cnnn3)c3ccc(F)cc3F)nc2)s1 (stereo not drawn) [Compound 107, 2-((6-(2-(2,4-difluorophenyl)-1,1-difluoro-2-hydroxy-3-(1H-tetrazol-1-yl)propyl)pyridin-3-yl)oxy)thiazole-5-carbonitrile] | < 40 | ≤ 0.5 |
| OC(Cn1cnnn1)(c1ccc(F)cc1F)C(F)(F)c1ccc(OCc2ccc(Cl)cn2)cn1 (stereo not drawn) [Compound 113, 1-(5-((5-chloropyridin-2-yl)methoxy)pyridin-2-yl)-2-(2,4-difluorophenyl)-1,1-difluoro-3-(1H-tetrazol-1-yl)propan-2-ol] | 80 to 100 | ≤ 0.5 |
| OC(Cn1cnnn1)(c1ccc(F)cc1F)C(F)(F)c1ccc(OCc2ccc(C(F)(F)F)cn2)cn1 (stereo not drawn) [Compound 114, 2-(2,4-difluorophenyl)-1,1-difluoro-3-(1H-tetrazol-1-yl)-1-(5-((5-(trifluoromethyl)pyridin-2-yl)methoxy)pyridin-2-yl)propan-2-ol] | 80 to 100 | ≤ 0.5 |
| OC(Cn1cnnn1)(c1ccc(F)cc1F)C(F)(F)c1ccc(OCc2ccc(C(F)(F)F)nc2)cn1 (stereo not drawn) [Compound 115, 2-(2,4-difluorophenyl)-1,1-difluoro-3-(1H-tetrazol-1-yl)-1-(5-((6-(trifluoromethyl)pyridin-3-yl)methoxy)pyridin-2-yl)propan-2-ol] | 80 to 100 | ≤ 0.5 |
| OC(Cn1cnnn1)(c1ccc(F)cc1F)C(F)(F)c1ccc(OCc2ccc(Cl)nc2)cn1 (stereo not drawn) [Compound 116, 1-(5-((6-chloropyridin-3-yl)methoxy)pyridin-2-yl)-2-(2,4-difluorophenyl)-1,1-difluoro-3-(1H-tetrazol-1-yl)propan-2-ol] | 80 to 100 | ≤ 0.5 |
| OC(Cn1cnnn1)(c1ccc(F)cc1F)C(F)(F)c1ccc(OCc2ccnc(Cl)c2)cn1 (stereo not drawn) [Compound 117, 1-(5-((2-chloropyridin-4-yl)methoxy)pyridin-2-yl)-2-(2,4-difluorophenyl)-1,1-difluoro-3-(1H-tetrazol-1-yl)propan-2-ol] | 80 to 100 | ≤ 0.5 |
| OC(Cn1cnnn1)(c1ccc(F)cc1F)C(F)(F)c1ccc(OCc2ccncc2)cn1 (stereo not drawn) [Compound 118, 2-(2,4-difluorophenyl)-1,1-difluoro-1-(5-(pyridin-4-ylmethoxy)pyridin-2-yl)-3-(1H-tetrazol-1-yl)propan-2-ol] | < 40 | ≤ 0.5 |
| OC(Cn1cnnn1)(c1ccc(F)cc1F)C(F)(F)c1ccc(OCC(F)(F)c2ccccc2)cn1 (stereo not drawn) [Compound 119, 1-(5-(2,2-difluoro-2-phenylethoxy)pyridin-2-yl)-2-(2,4-difluorophenyl)-1,1-difluoro-3-(1H-tetrazol-1-yl)propan-2-ol] | 80 to 100 | ≤ 0.5 |
| OC(Cn1cnnn1)(c1ccc(F)cc1F)C(F)(F)c1ccc(OCC(F)(F)c2ccc(OC(F)F)cc2)cn1 (stereo not drawn) [Compound 120, 1-(5-(2-(4-(difluoromethoxy)phenyl)-2,2-difluoroethoxy)pyridin-2-yl)-2-(2,4-difluorophenyl)-1,1-difluoro-3-(1H-tetrazol-1-yl)propan-2-ol] | 80 to 100 | ≤ 0.5 |

— patent US8748461B2, “Metalloenzyme inhibitor compounds” (Viamet Pharmaceuticals, Inc., priority 2011, dated 2014)
